Reference: US12521435B2, “Photodynamic therapy composition” (CASE WESTERN RESERVE UNIVERSITY, priority 2020, dated 2026)

Assays:
PC3pip tumors [1] = assay: Multiple sequential PDT of tumors around 500 mm^3; type: in vivo, athymic nude mice; details: E64 intratumorally injected after bleaching; following 48 h (Day 2 and Day 3)
Protocol: Tumor size and mouse body weight was monitored every other day for a 30 day period. […] PDT was performed at 24 h, 2 days, and 3 days post-injection. Fluorescence before and after each PDT was monitored with Maestro, and intensity was quantified. One group of mice that received AuNPs-Pc158 were intratumorally injected with cathepsin inhibitor E64 after the first PDT exposure. After PDT, tumor size and mice body weight were monitored over 24 days.

PC3pip cells = assay: In vitro PDT, CCK8 assay; type: cell-based; details: E64 added to block the cleavage
Protocol: In vitro PDT was evaluated by CCK8 assay. PC3pip and PC3flu cells were seeded in 96-well plates at 1×10^4 cells/well. […] The 96-well plate was irradiated (Appolo Horizon projector, Acco Brands) with radiant exposure at 1 J/cm^2, after which the cells were incubated overnight. After incubation, CCK8 agent (DojinDo Laboratories) was added to each well (10 μL/well) and incubated for 3 h at 37° C., and absorbance at 450 nm was measured for each well.

[2] = tested on: PSMA-positive PC3pip cells; assay: In vitro targeting and intracellular Pc158 release (confocal microscopy); type: cell-based; details: E64 added prior to coincubation with AuNPs
Protocol: Retrovirally transformed PSMA-positive PC3pip cells and transfection control PSMA-negative PC3flu cells were incubated for specific uptake and intracellular release studies. Both PC3pip and PC3flu cells were cultured in RPMI1640 medium (Invitrogen Life Technology) with 2 mmol/L L-glutamine, 10% FBS at 37° C., and 5% CO2. PC3pip and PC3flu cells were seeded in μ-Slide 8-Well Chamber Slide (ibidi) at 2000 cells/well. When the cells grew to 70% confluence, AuNPs-Pc158 conjugations were added at a Pc158 concentration of 1 μmol/L and coincubated for 1 h, 6 h, and 24 h. Then the cells were washed with PBS and stained with DAPI, LysoOrange, and MitoGreen (all from abcam) for 30 min at 37° C. and 5% CO2, after which they were washed again with PBS and replete medium added. The release of Pc158 and localization of nuclei, lysosomes, and mitochondria was observed under a Leica HyVolution SP8 confocal microscope (Leica Microsystem Inc.).

PC3pip tumors [3] = assay: In vivo tumor targeting and intratumor Pc158 release (Maestro fluorescence imaging); set-up: species or system athymic nude mice; details: E64 intratumorally injected before AuNPs-Pc158 administration
Protocol: All animal procedures were performed according to Institutional Animal Care and Use Committee (JACUA)-approved protocols (2015-0033). Four- to five-week-old male athymic nude mice were subcutaneously implanted with PC3pip or PC3flu cells (100 μL, cells suspended in PBS/matrigel at 1×10^7 cells/mL) on the right and left flanks, respectively. When the tumors grew to a sufficient size, AuNPs-Pc158 conjugations were intravenously injected via the tail vein with a Pc158 dose of 0.1 mg/kg. The mice were preimaged before, and at 0.5 h, 1 h, 4 h, 8 h, 24 h, 48 h, 72 h, 96 h, and 120 h after NPs injection using the Maestro In vivo Imaging System (PerkinElmer) to monitor the delivery and release of Pc158. Multispectral images were unmixed into their component spectra (Pc158 autofluorescence and background). Component images were used to quantitatively determine the average Pc158 fluorescence intensity of the PC3pip and PC3flu tumors. Tumor tissues at 24 h postinjection were also collected, cut, and imaged to see the Pc158 distribution (details in the histology analysis section).

Which results are given for `CC(C)C[C@H](NC(=O)[C@H]1O[C@@H]1C(=O)O)C(=O)NCCCCN=C(N)N` [E64]?
Pc158 fluorescence in the tumor after first PDT (PC3pip tumors [1]): fluorescence inhibition; release of free Pc158 and PDT with AuNPs-Pc158 (PC3pip cells): significantly hindered; process of free Pc158 generation from AuNPs-Pc158 in cells [2]: could be blocked; Pc158 fluorescence in PC3pip tumors (PC3pip tumors [3]): no Pc158 fluorescence was measurable
